Reference: US20190048052A1, “ANTI-MICROBIAL PEPTIDES AND COATINGS” (Board of Regents of the University of Nebraska, priority 2016, published 2019)
Residues, ends and D or L forms follow the SMILES beside them.

Experiments:
S. aureus USA300 [1] = test: FITC entry into live bacteria, confocal microscopy; type: cell-based, Staphylococcus aureus; conditions: peptide and FITC 9 μM
Method: The entrance of a fluorescent dye into live bacterial cells was also followed by confocal microscopy (Mishra et al. (2015) RSC Advances 5:59758-59769). In brief, S. aureus USA300 was grown to the exponential phase from the overnight culture. The cells were then washed twice with fresh 1×PBS (pH 7.2) and the final cell density was adjusted to 1×10^8 CFU/mL. 1500 μL of the culture was added to the chambers of cuvettes (borosilicate cover glass systems; Nunc Cat. No. 155380) with equimolar concentrations of TetraF2W-RK and fluorescein isothiocyanate FITC (9 μM). The samples were examined with a confocal laser scanning microscope (Zeiss 710) with live time series of picture taken every 5 seconds for 5 minutes and the data were processed using Zen 2010 software.

proteinase K = biological target: T1, proteinase K (Parengyodontium album, UniProt P06873); test: Peptide stability to proteases (SDS-PAGE); type: in vitro ADME, fungal; conditions: peptide:protease 40:1, 24 hours, 37° C.
T1 construct: purchased Sigma or Fisher
Method: When degraded, no peptide band could be detected on a 5% stacking/18% resolving tricine gel after 2-4 hours incubation at 37° C. Briefly, a solution (100 μL) containing 250 μM peptide and 6.25 μM protease (Sigma or Fisher) in 10 mM PBS buffer (pH 8) was incubated at 37° C. (peptide/protease molar ratio, 40:1). Aliquots (10 μL) of the reaction solutions were taken at 0, 6, and 24 hours and immediately mixed with 10 μL of 2× SDS loading buffer followed by boiling for 5 minutes to stop the reaction. […] After electrophoresis, the gel was stained by Brilliant Blue R-250 (Fisher) and destained to view the peptide bands.

S. aureus USA300 [2] = test: Killing kinetics by colony counting; type: cell-based, Staphylococcus aureus; conditions: 10^5 CFU S. aureus USA300, colony counting
Method: Killing kinetic experiments were conducted similar to antibacterial assays described above with the following modifications (Wang et al. (2012) Antimicrob. Agents Chemother., 56:845-856). Aliquots of cultures (10^5 CFU) treated with TetraF2W peptides were taken at 15, 30, 50, 90, and 120 minutes, diluted 100-fold, and plated on Luria-Bertani (LB) agar plates. Colonies were counted after overnight incubation at 37° C.

human red blood cells = test: Hemolytic ability (Example 3); type: cell-based; conditions: concentration that causes 50% hemolysis
Outline: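 Human red blood cells were washed three times in PBS, diluted to 2%, exposed to peptide for one hour at 37 °C and centrifuged. Hemoglobin in the supernatant was read at 545 nm. Percent lysis is relative to 1% Triton X-100 (100%) and PBS (0%).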

S. aureus USA300 [3] = test: Propidium iodide membrane permeation (Example 3); type: cell-based, Staphylococcus aureus; conditions: 3.1 μM
Method: FIGS. 15A and 15B show the growth inhibition (FIG. 15A) and propidium iodide-based membrane permeation (FIG. 15B) of S. aureus USA300 in TSB media by 3.1 μM of TetraF2W-RR and its single arginine variants (Table 8) at 37° C. with shaking at 100 rpm.
Fluorescence spectroscopy was also used to follow bacterial killing. In brief, μL of serially diluted 10× peptide concentrations were done in 96-well coming COSTAR microtiter plates. Propidium iodide at a fixed concentration of 20 μM per well was added to each well which was finally incubated with 88 μL of S. aureus USA300 (with a final OD600 0.1) with continuous shaking at 100 rpm with meander corner well shaking, 37° C. in a FLUOstar® Omega (BMG LABTECH Inc., NC) microplate reader. The plates were read every 5 minutes for a total duration of 2 hours with excitation and emission wavelengths at 584 nm and 620 nm, respectively.

S. aureus USA300 [4] = type: cell-based, Staphylococcus aureus
Outline: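 USA300 (10^5 CFU/mL) biofilms grown statically in TSB for 24 h at 37° C, washed, then exposed to peptide in fresh TSB for another 24 h at 37° C. Residual biomass read by crystal violet staining at 600 nm; viable cells by 10% XTT, 2 h at 37° C, absorbance 450 nm. Biofilm reduction expressed as percent of untreated wells.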

T1 sequence (P06873 106-384): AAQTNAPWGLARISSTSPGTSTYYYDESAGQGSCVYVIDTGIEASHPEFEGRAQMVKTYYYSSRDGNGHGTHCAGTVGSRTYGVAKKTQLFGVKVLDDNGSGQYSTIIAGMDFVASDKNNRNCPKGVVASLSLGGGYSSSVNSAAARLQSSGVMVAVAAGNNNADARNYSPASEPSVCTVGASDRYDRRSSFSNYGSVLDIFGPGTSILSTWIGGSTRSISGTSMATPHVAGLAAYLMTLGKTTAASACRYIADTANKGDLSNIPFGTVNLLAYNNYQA

SMILES	time for FITC to enter the majority of cells (S. aureus USA300 [1]) [s]	stability to fungal proteinase K (proteinase K)	time in which all the bacteria were killed (S. aureus USA300 [2]) [min]	HL50 (human red blood cells) [µM]	membrane permeation by propidium iodide (S. aureus USA300 [3])	killing in preformed biofilms (XTT) (S. aureus USA300 [4]; 6.2 μM)	killing in preformed biofilms (XTT), words (S. aureus USA300 [4]; 12.5 μM)
CC[C@H](C)[C@H](NC(=O)[C@H](CCCCN)NC(=O)[C@H](CCCNC(=N)N)NC(=O)[C@H](CC(C)C)NC(=O)[C@H](Cc1c[nH]c2ccccc12)NC(=O)[C@H](Cc1c[nH]c2ccccc12)NC(=O)[C@@H](N)Cc1c[nH]c2ccccc12)C(=O)N[C@@H](Cc1c[nH]c2ccccc12)C(N)=O [TetraF2W-RK, WWWLRKIW] (H-WWWLRKIW-NH2; N-terminus assumed)	30	completely degraded					
CC[C@H](C)[C@H](NC(=O)[C@H](CCCNC(=N)N)NC(=O)[C@H](CCCNC(=N)N)NC(=O)[C@H](CC(C)C)NC(=O)[C@H](Cc1c[nH]c2ccccc12)NC(=O)[C@H](Cc1c[nH]c2ccccc12)NC(=O)[C@@H](N)Cc1c[nH]c2ccccc12)C(=O)N[C@@H](Cc1c[nH]c2ccccc12)C(N)=O [TetraF2W-RR, WWWLRRIW] (H-WWWLRRIW-NH2; N-terminus assumed)			90	35	most potent	only the WT was active	nearly all S. aureus USA300 was eliminated
